Measured values published in patent US20120004205A1, “IL-13 INDUCED GENE SIGNATURE FOR EOSINOPHILIC ESOPHAGITIS” (Cincinnati Children's Hospital Medical Center, priority 2008, published 2012).

Columns and labels:
IL-13 mRNA = IL-13 mRNA in esophageal biopsy specimens of FP-treated EE patients, real-time PCR; format: in vivo, human; details: patients with EE treated successfully with FP
Description: (§1) For each patient, one distal esophageal mucosal biopsy sample was immersed in RNA, later RNA stabilization reagent (Qiagen) and stored at 4 C. for <15 days. Total RNA was extracted using the RNAeasy Mini Kit (Qiagen) according to the manufacturer's recommendations. Hybridization to DNA microarray was performed by the MicroarrayCore at Cincinnati Children's Hospital Medical Center, as previously reported Blanchard, C. et al., (2006) J. Clin. Invest. 116: 536-547. The genome wide human Affymetrix U133A plus 2.0 Genechip® was used, and gene transcript levels were determined using algorithms in the Microarray Analysis Suite and GeneSpring software (Silicon Genetics) as previously described Blanchard, C. et al., (2006) J. Clin. Invest. 116: 536-547. […] Response to therapy was defined as <1 eosinophils/high power field (hpf) and no epithelial cell hyperplasia as described herein.
(§2) (rev) […]; IL-13R2 (396 bp): (fwd): […] (rev) […]; IL-4Rα (335 bp): (fwd): […]
(§3) Wood, N. et al., (2003) J. Exp. Med. 197: 703-709. In patients with EE with successful anti-inflammatory intervention, IL-13 overexperssion can be normalized. […] Similarly, eotaxin-3 mRNA was normalized in FP-responder patients (P<0.01; FIG. 6B). […] Remarkably, 98% of the EE transcriptome was reversed to expression levels detected in biopsy specimens of healthy patients (FIG. 6C). […]

eotaxin-3 mRNA = experiment: Eotaxin-3 mRNA in esophageal biopsy specimens of FP-treated EE patients, real-time PCR; format: in vivo, human; details: P<0.01
Description: as §1, §2, §3

EE transcriptome = experiment: Microarray analysis of the EE transcriptome in successfully treated EE patients; format: in vivo, human
Description: as §1, with “herein. […] Wood, N. et al., (2003) J. Exp. Med. 197: 703-709. In patients with EE with successful anti-inflammatory intervention, IL-13 overexperssion can be normalized. […] Similarly, eotaxin-3 mRNA was normalized in FP-responder patients (P<0.01; FIG. 6B). […] Remarkably, 98% of the EE transcriptome was reversed to expression levels detected in biopsy specimens of healthy patients (FIG. 6C). […]” for “herein.”

cadherin-26 (CDH26) = experiment: Cadherin-26 expression in FP-treated EE patients, real-time PCR; format: in vivo, human; details: P<0.05
Description: as §2
Wood, N. et al., (2003) J. Exp. Med. 197: 703-709. In patients with EE with successful anti-inflammatory intervention, IL-13 overexperssion can be normalized. […] Similarly, eotaxin-3 mRNA was normalized in FP-responder patients (P<0.01; FIG. 6B). The research next aimed to determine whether the EE transcriptome was also reversible in patients with EE successfully treated with glucocorticoids. Remarkably, 98% of the EE transcriptome was reversed to expression levels detected in biopsy specimens of healthy patients (FIG. 6C). The reversible genes include cell-specific transcripts, including eosinophil, mast cell, lymphocyte, fibroblast, and epithelial genes. In addition, genes involved in cellular recruitment and cell proliferation were also reversible. Although the biopsy specimens had no abnormal microscopic features, 12 genes were still dysregulated (FIG. 6B).

patients with EE = details: in vivo; cited from earlier work

## CCC(=O)O[C@]1(C(=O)SCF)[C@H](C)C[C@H]2[C@@H]3C[C@H](F)C4=CC(=O)C=C[C@]4(C)[C@@]3(F)[C@@H](O)C[C@@]21C [FP, S-fluoromethyl-6α,9-difluoro-11β-hydroxy-16α-methyl-3-oxo androsta-1,4-diene-17β-carbothioate, 17-propionate]
IL-13 mRNA
  IL-13 mRNA levels in EE responders compared with untreated specimens: significantly (P<0.01) reduced
eotaxin-3 mRNA
  eotaxin-3 mRNA in FP-responder patients: normalized
EE transcriptome; patients with EE successfully treated with glucocorticoids
  EE transcriptome reversed to expression levels of healthy patients: 98%
EE transcriptome; successfully treated EE patients, fold change filter 2
  genes still dysregulated after treatment: 12 genes
cadherin-26 (CDH26)
  cadherin-26 expression in FP-treated patients with EE: residual upregulation
Patients with EE
  EE disease remission compared with placebo treatment: induces EE disease remission
